We go through three compounds from US4777182A, “6-Amidino-2-naphthyl 4-guanidinobenzoate derivatives and pharmaceutical composition containing them” (Torii & Co., Ltd., priority 1984, dated 1988).

One series relates to Forssman shock. Description: Forssman shock. The series is classed as in vivo. As to conditions: guinea pig, 100 mg/kg orally before i.v. hemolysin, individual animals; for time elapsed until death: 100 mg/kg. The source says: Quite different from other animals, guinea pig has on the surface of its organs a specific antigen called Forssman antigen which specifically reacts with the antibody of sheep erythrocyte. Forssman shock is based on the above principle and is a shock caused by the administration of antibody of sheep erythrocyte to a guinea pig. The Forssman shock was investigated in detail by many researches and it was definitely shown that this shock is a model case where the complement plays the principal part and that the shock is associated with a classical pathway in which the complement system is activated progressively starting from C1. Since the participation of complement in autoimmune diseases has been established, the Forssman shock can be said to be useful means for testing a drug for autoimmune diseases. A drug effective for the treatment of Forssman shock is useful as a drug of autoimmune diseases.
The experiment was performed according to the method of I. G. Offerness et al. [Biochem. Pharmacol., 27 (14), 1873-1878 (1978)]. Male Hartley guinea pigs of about 350 g in body weight were used. Each guinea pig of the control group was administered intravenously with hemolysin (minimum dose to cause the shock) (commercial hemolysin, 5,000 U as assayed by the method of Ogata) and the time elapsed until death was observed. Each guinea pig of the treated group was administered intravenously with hemolysin after the animal was administered orally with compounds (100 mg/kg) and the time elapsed until death was observed.

Series [1] has as its system complement mediated hemolysis. Description: Inhibition of complement mediated hemolysis. The format is cell-based.
Description: Therefore, when a known amount of complement admixed with a C1 esterase inhibitor is used, the hemolysis must be suppressed in proportion to the inhibitory activity.
In the next series the target is Plasmin (Homo sapiens, UniProt P00747). As to the kind of experiment: Anti-plasmin activity (inhibition of TAME hydrolysis). The series is classed as biochemical.
Plasmin, sequence (P00747 97-580 limits assumed, species assumed): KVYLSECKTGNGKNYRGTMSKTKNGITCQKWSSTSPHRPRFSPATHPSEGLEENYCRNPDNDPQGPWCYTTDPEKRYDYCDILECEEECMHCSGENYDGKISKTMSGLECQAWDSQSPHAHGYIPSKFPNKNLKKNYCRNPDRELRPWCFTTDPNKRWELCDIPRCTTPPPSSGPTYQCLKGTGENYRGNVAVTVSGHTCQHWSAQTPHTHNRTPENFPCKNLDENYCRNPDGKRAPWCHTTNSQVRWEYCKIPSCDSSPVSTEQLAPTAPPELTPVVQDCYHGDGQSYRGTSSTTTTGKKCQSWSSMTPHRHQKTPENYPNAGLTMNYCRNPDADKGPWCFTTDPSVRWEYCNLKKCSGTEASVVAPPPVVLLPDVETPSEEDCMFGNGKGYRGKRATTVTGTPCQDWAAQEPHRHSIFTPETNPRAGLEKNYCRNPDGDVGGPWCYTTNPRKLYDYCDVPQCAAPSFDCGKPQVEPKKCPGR
Plasmin, sequence (P00747 581-810 limits assumed, species assumed): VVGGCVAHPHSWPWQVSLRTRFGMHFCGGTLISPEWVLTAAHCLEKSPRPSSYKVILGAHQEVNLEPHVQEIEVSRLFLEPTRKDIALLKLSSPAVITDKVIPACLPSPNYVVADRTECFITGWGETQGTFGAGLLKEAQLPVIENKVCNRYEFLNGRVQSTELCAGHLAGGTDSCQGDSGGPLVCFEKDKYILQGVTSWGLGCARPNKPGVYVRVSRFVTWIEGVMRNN
The target in another series is T1, C1r (Homo sapiens, UniProt P00736).
T1 sequence (P00736 18-463 limits assumed): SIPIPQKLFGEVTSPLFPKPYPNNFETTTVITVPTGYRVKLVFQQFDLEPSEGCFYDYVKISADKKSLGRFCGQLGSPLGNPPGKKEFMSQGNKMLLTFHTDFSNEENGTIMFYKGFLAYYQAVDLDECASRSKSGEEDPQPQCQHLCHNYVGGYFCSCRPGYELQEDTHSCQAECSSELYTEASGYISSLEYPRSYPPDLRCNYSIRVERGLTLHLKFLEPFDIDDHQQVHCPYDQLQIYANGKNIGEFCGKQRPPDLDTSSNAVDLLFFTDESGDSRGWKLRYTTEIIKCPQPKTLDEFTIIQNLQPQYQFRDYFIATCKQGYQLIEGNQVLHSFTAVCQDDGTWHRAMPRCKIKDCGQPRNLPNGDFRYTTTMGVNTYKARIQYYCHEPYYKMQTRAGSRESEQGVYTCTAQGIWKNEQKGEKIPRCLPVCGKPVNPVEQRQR
T1 sequence (P00736 464-705 limits assumed): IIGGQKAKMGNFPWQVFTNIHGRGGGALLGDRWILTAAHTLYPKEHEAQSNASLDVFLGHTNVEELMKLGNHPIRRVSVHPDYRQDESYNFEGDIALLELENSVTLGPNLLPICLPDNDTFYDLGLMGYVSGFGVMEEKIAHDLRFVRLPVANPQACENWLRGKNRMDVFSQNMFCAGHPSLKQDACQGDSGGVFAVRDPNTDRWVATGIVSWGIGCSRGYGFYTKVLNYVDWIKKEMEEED
Description: Anti-C1r activity (inhibition of AAME hydrolysis). The format is biochemical. The note with it: at 1×10^-5 M; read-out: percent inhibition, C1r (figure in parentheses). The procedure:
The anti-C1 esterase (C1r, C1s) activity was determined according to the method of Okamura et al. [K. Okamura, M. Muramatsu and B. Fujii, Biochem. Biophys. Acta, 295, 252-257 (1973)]. (2) The inhibition of complement mediated hemolysis was determined according to the method of Baker et al. [B. R. Baker and E. H. Erickson, J. Med. Chem., 12, 408-414 (1969)]. The figures in Table 2 have the following meanings: C1r: […]

The next series concerns the target T2, C1s (Homo sapiens, UniProt P09871).
T2 sequence (P09871 16-437 limits assumed): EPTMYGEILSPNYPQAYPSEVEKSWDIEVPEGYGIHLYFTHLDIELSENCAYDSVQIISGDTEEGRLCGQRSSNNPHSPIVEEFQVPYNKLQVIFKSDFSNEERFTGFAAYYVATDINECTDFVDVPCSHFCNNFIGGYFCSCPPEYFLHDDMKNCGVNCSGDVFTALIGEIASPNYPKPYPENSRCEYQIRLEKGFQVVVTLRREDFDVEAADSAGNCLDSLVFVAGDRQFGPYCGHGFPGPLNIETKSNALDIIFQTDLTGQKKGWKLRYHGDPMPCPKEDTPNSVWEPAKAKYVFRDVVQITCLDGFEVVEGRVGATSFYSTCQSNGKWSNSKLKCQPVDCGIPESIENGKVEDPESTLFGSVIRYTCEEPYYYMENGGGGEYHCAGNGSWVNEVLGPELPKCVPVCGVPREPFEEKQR
T2 sequence (P09871 438-688 limits assumed): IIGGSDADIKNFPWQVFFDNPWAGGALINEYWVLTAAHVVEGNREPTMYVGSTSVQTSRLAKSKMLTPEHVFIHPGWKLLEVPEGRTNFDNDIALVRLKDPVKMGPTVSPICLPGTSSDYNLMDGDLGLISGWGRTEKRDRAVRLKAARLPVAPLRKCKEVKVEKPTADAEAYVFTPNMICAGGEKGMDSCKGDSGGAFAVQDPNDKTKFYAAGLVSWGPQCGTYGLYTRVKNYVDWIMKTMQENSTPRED
Description: Anti-C1s activity (inhibition of ATEE hydrolysis). The format is biochemical. The note with it: read-out: ID50, C1s. The procedure: The anti-C1 esterase (C1r, C1s) activity was determined according to the method of Okamura et al. [K. Okamura, M. Muramatsu and B. Fujii, Biochem. Biophys. Acta, 295, 252-257 (1973)]. (2) The inhibition of complement mediated hemolysis was determined according to the method of Baker et al. [B. R. Baker and E. H. Erickson, J. Med. Chem., 12, 408-414 (1969)]. The figures in Table 2 have the following meanings:
C1s: Molar concentration of the test compound which inhibits 50% of the ability of C1s to hydrolyse ATEE (acetyltyrosin ethyl ester) (ID50).

Series [2] in a line: Toxicity (median lethal dose). As to conditions: in vivo, mouse.
For another series, the target named is T3, Trypsin (Bos taurus, UniProt P00760).
T3 sequence (P00760 24-246): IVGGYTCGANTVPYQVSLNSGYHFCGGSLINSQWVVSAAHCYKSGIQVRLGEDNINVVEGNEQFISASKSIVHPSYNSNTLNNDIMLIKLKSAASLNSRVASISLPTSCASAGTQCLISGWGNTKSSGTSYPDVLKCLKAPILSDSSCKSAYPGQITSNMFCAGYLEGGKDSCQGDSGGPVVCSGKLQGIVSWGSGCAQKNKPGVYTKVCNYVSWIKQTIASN
As to the kind of experiment: Anti-trypsin activity (inhibition of TAME hydrolysis). The note with it: read-out: ID50, Trypsin. The series is classed as biochemical.

The test system of a further series is Kallikrein. Description: Anti-kallikrein activity (inhibition of TAME hydrolysis). The format is biochemical. The note with it: read-out: ID50, Kallikrein.
A further series addresses Thrombin (Homo sapiens, UniProt P00734). As to the kind of experiment: biochemical. The note with it: TAME hydrolysis; read-out: ID50, Thrombin.
The mark [3] stands for this setting: TAME hydrolysis, read-out: ID50, Plasmin.

Molecules are shown by their SMILES. pIC50: −log10 of the molar value. Where “and” joins values, the source holds several entries; their conditions need not be identical. Identical values can stand only once. Like-named read-outs stand apart in the source and are kept apart here.

On to `N=C(N)c1ccc2cc(OC(=O)c3ccc(NC4=NCCN4)cc3)ccc2c1` [Compound No. 2, 6-amidino-2-naphthyl 4-(2-imidazolinyl)amino-benzoate], for which, in the series with Forssman shock, the “time elapsed until death” value is 1108 s and 1255 s and 980 s and 855 s. Also, the “Inhibition of complement mediated hemolysis (%)” value (shortened to “Inhibition … (%)”) stood at 100% in [1] (1 × 10^-5), 91% in [1] (1 × 10^-6) and 29% in series [1] (1 × 10^-7). The pIC50 at Plasmin was 5.70; on C1s, 6.15; on Trypsin it was 6.00. Also, at C1r, the inhibition – broadly, the drop in the measured response relative to a control, in per cent – at 10 µM was 35%. Further, the LD50 – broadly, the dose expected to kill half of the subjects tested – is 19 mg/kg in [2] (iv, I.V.) and over 3000 mg/kg in [2] (po, P.O.).
Regarding `CNC(=N)Nc1ccc(C(=O)Oc2ccc3cc(C(=N)N)ccc3c2)cc1` [compound 8], the “Inhibition … (%)” value came to 100% in series [1] (1 × 10^-5), 93% in series [1] (1 × 10^-6) and 34% in series [1] (1 × 10^-7). For the same compound, the pIC50 was 5.52 at Plasmin (setting [3]); 5.70 at C1s; 5.52 in the series with Kallikrein; 7.22 at Thrombin; 5.40 at Trypsin. Moreover, at C1r, the inhibition at 10 µM came out at 47%.
For `CN=C(NC)Nc1ccc(C(=O)Oc2ccc3cc(C(=N)N)ccc3c2)cc1` [Compound No. 1, 6-amidino-2-naphthyl 4-(2,3-dimethyl)guanidino-benzoate], the “Survival (instead of time elapsed until death)” value in the series with Forssman shock is reported as “Survival”. For the same compound, the “time elapsed until death” value with Forssman shock was 1291 s and 390 s and 504 s and 613 s and 404 s and 868 s. For the same compound, the “Inhibition … (%)” value is 97% in series [1] (1 × 10^-5), 70% in [1] (1 × 10^-6) and 6% in series [1] (1 × 10^-7). The pIC50 on Plasmin (setting [3]) was 6.10; on C1s it was 6.40; with Kallikrein it was 6.15; at Thrombin, 5.05; on Trypsin it was 5.00. Besides, the inhibition at 10 µM on C1r amounted to 32%.
